Patent US9034819B2, “Method of lowering cholesterol and triglycerides by administering exendins” (Amylin Pharmaceuticals, LLC, priority 2008, dated 2015)

How the values were obtained:
Type in all cases: in vivo, human
[1] = system: total cholesterol, LDL-cholesterol, HDL-cholesterol; test: Total, LDL- and HDL-cholesterol, 30 week study in patients with Type 2 diabetes; conditions: SC
Protocol: (§1) The pharmacokinetics of a long-acting release formulation of exenatide was evaluated in a study in patients with Type 2 diabetes. The study population consisted of individuals with type 2 diabetes treated with a stable regimen of oral diabetes medications or managed with diet modification and exercise. […] The 30 week study compared a 10 μg formulation of exenatide administered twice daily (BTD) by subcutaneous (SC) injection and a 2 mg formulation of exenatide administered once weekly by subcutaneous (SC) injection. The study was also conducted, inter alia, to examine the effects of such administration on the individual's total cholesterol, LDL-cholesterol, HDL-cholesterol, triglyceride levels, hemoglobin A1C, fasting postprandial blood glucose, and weight.
During the 3-day lead-in period, patients self-administered exenatide 5 μg SC, BID, within 15 minutes prior to meals in the morning and evening. The exenatide 5 μg SC, BID used in the 3-day lead-in period was a clear, colorless, sterile preserved solution for SC injection containing exenatide (exendin-4) in sodium acetate buffer, pH 4.5, 4.3% mannitol as an iso-osmolality modifier and 0.22% metacresol as a preservative. The strength of exenatide injection was 0.25 mg/mL of exendin-4.
During the 30-week treatment period, patients received once weekly subcutaneous injections of a 2.0 mg dose pharmaceutical formulation containing 5% exenatide or patient received twice daily subcutaneous injections of exenatide at 10 μg per dose.
(§2) Exenatide once weekly is a sustained-release formulation of exenatide (exendin-4) designed to provide exenatide release over a period ranging from 7 to 91 days. […] The vial containing the white to off-white dry powder (2.8 mg of exenatide once weekly) was stored frozen in a freezer with a recorded temperature at ≦−20±5° C. at the study site.
(§3) Patients were monitored about every four weeks for body weight, vital signs (including blood pressure, heart rate, respiratory rate, and temperature), urinalysis, and adverse events. […]

blood glucose = test: Fasting postprandial blood glucose, 30 week study in patients with Type 2 diabetes; conditions: decrease from baseline to week 30; SC; once weekly 2 mg or twice daily 10 μg
Protocol: as §1
During the 3-day lead-in period, patients self-administered exenatide 5 μg SC, BID, within 15 minutes prior to meals in the morning and evening. […]
as §2

fasting triglycerides = test: Fasting triglycerides, 30 week study in patients with Type 2 diabetes; conditions: decrease from baseline to week 30; SC; once weekly 2 mg or twice daily 10 μg
Protocol: as §1, with “weight. […]” for “weight.”
as §2, §3

[2] = Body weight, 30 week study in patients with Type 2 diabetes; conditions: weight loss from baseline to week 30, SC, once weekly 2 mg or twice daily 10 μg
Protocol: as §1, with “weight. […]” for “weight.”
as §2, §3

hemoglobin A1C = test: Hemoglobin A1C by HPLC, 30 week study in patients with Type 2 diabetes; conditions: decrease from baseline to week 30; SC; once weekly 2 mg or twice daily 10 μg
Protocol: as §1, with “weight. […]” for “weight.”
as §2
Plasma exenatide was quantified by a validated Enzyme-Linked Immunosorbent Assay (ELISA) at Millipore (Billerica, Mass.). […] Glycosylated hemoglobin was quantitated by Quintiles Laboratories (Smyrna, Ga.) using high-performance liquid chromatography. […]

[3] = decrease from baseline to week 30, once weekly 2 mg or twice daily 10 μg

exenatide BID: 10 μg formulation of exenatide (exendin-4) administered twice daily by subcutaneous injection
HDL-cholesterol decreased by an average of [1, 3]: 1.3 mg/dL
total cholesterol decreased by an average of [1, 3]: 3.8 mg/dL
LDL-cholesterol increased by an average of ([1]; increase from baseline to week 30, twice daily 10 μg): 1.2 mg/dL
fasting postprandial blood glucose decreased by an average of (blood glucose): 25 mg/dL
fasting triglycerides decreased by an average of (fasting triglycerides): 22 mg/dL
body weight decreased by an average of (weight loss) [2]: about 3.6 kg
body weight decreased by an average of (weight loss) ([2]; listed as exenatide twice daily): 3.6 kg
HbA1C decreased by an average of (hemoglobin A1C): 1.5%
